# Test results taken from US20210270815A1, “SPERM FERTILITY CAPACITY TEST AND SPERM DECAPACITATING SUPPLEMENT” (priority 2018, published 2021).
# Residues, ends and D or L forms follow the SMILES beside them. *: point of attachment. Cbz = O=C(OCc1ccccc1)*
# Key:
# boar spermatozoa [1] = assay: Zinc signature (FZ3, image-based flow cytometry) of boar spermatozoa after 4 hours of in vitro capacitation (IVC); format: cell-based, Sus scrofa
# Excerpt: Fresh boar spermatozoa were capacitated using a protocol that rendered them capable of recognizing and binding to ZP, as well as undergoing acrosomal exocytosis and penetrating the oocyte ZP^11. IVC-induced protein tyrosine phosphorylation changes are shown in FIG. 3; acrosomal status and plasma membrane changes are shown in FIG. 4A and FIG. 4B. Briefly, spermatozoa were washed of seminal plasma once with noncapacitating media (NCM), a modified TL-HEPES medium, free of calcium dichloride (CaCl2) and addition of 11 mM D-glucose, with pH adjusted to 7.2. Spermatozoa were then resuspended in 0.5 mL in vitro capacitation (IVC) media, TL-HEPES-PVA supplemented with 5 mM sodium pyruvate, 11 mM D-glucose, 2 mM CaCl2, 2 mM sodium bicarbonate, and 2% (m/v) bovine serum albumin, and incubated in a 37° C. water bath for 4 hours, with sperm rotation performed every 60 minutes. Control incubations under non-IVC conditions used NCM. Proteasome inhibitors (100 μM MG-132 and 10 μM Epox/CLBL/MG-132) were mixed with IVC media prior to sperm pellet resuspension. 100 μM M MG-132 and ‘100 μM’ vehicle contained 0.5% (v/v) DMSO. 10 μM Epox/CLBL/MG-132 and ‘10 μM’ vehicle contained 0.3% (v/v) DMSO. PVA (polyvinyl alcohol) helped to reduce sperm aggregation and spermatozoa were pipetted repeatedly to dissociate sperm aggregates in a satisfactory manner prior to IBFC data acquisition. To confirm normal capacitation in the experimental IVC media, compared to 15 mM sodium bicarbonate IVC media, normal hyperactivation status was recorded and tyrosine phosphorylation status was normal (FIG. 3). Unlike murine or rodent sperm tyrosine phosphorylation, porcine tyrosine phosphorylation is much more modest, with less prominent changes during the course of capacitation. Therefore new bands after capacitation appear only at the molar weights of 32 kDa (acrosin binding protein), and 21 kDa protein (phospholipid hydroperoxide glutathione peroxidase). […] Final acrosome and plasma membrane modification status is similar at end of IVC regardless of the two IVC treatment conditions; however, the rate of change and cell death is faster in 15 mM sodium bicarbonate containing medium than experimental IVC medium (FIGS. 4A and 4B).
# (§1) Upon 4 hours of IVC, sample size of 100 μL (4 million spermatozoa) were incubated 30 minutes with 1:200 H33342, 1:200 PI, and 1:100 FZ3 for epifluorescence microscopy. Lower probe concentrations were necessary for IBFC due to camera detection differences, thus 1:1000, 1:1000, and 1:500 were used, respectively, with inclusion of 1:1000 PNA-AF647. For Fluo-4 calcium probe, we followed manufacturer protocol using identical cell concentrations.
# IBFC data acquisition was performed following previous methodology^56. Specifically, using a FlowSight flow cytometer (FS) fitted with a 20× microscope objective (numerical aperture of 0.9) with an imaging rate up to 2000 events per sec. The sheath fluid was PBS (without Ca^2+ or Mg^2+). The flow-core diameter and speed was 10 μm and 66 mm per sec, respectively. Raw image data were acquired using INSPIRE® software. To produce the highest resolution, the camera setting was at 1.0 μm per pixel of the charged-coupled device. In INSPIRE® FS data acquisition software, two brightfield channels were collected (channels 1 & 9), one FZ3 image (channel 2), one PI image (channel 5), one side scatter (SSC; channel 6), one H33342 (channel 7), and one PNA-AF647 image (channel 11), with a minimum of 10,000 spermatozoa collected. The following lasers and power settings were used: 405 nm (to excite H33342): 10 mW; 488 nm (to excite FZ3): 60 mW; 561 nm (to excite PI): 40 mW, 642 nm (to excite PNA-AF647): 25 mW; and 785 nM SSC laser: 10 mW.
# Data were analyzed using IDEAS® analysis software from AMNIS EMD Millipore. Gating approach used standard focus and single cell gating calculations created by IDEAS software (FIG. 2A, left and middle panels). […]
# boar spermatozoa [2] = assay: TPEN Zn chelation of spermatozoa, FZ3 zinc probe and Fluo-4 calcium probe fluorescence; format: cell-based, Sus scrofa; details: 10 μM, 40 million sperm per mL, 1 hour
# Method: Zn^2+ chelation was performed using TPEN (membrane permeable). 10 μM TPEN was incubated with 40 million sperm per mL for 1 hour. Stock TPEN: 1 mM in 1:100 EtOH:H2O.
# as §1
# IBFC data acquisition was performed following previous methodology^56. […]
# Data were analyzed using IDEAS® analysis software from AMNIS EMD Millipore. […] Events in focus were further gated to analyze only a single spermatozoa by plotting H33342 fluorescence area by aspect ratio (FIG. 2A, middle panel). […] Such mask was created by taking a morphology mask of the brightfield (FIG. 2B, first column), subtracting a 4-pixel dilation of H33342 (FIG. 2B, second column), resulting in a mask to analyze fluorescence in the tail region only (FIG. 2B, third and fourth columns). […] This combined gating and masking strategy shown in FIG. 2C provided robust clean data, ready for signature analysis by plotting FZ3 intensity of this masked region, which is impossible with traditional flow cytometry. […]
# [3] = 100 μM in IVC media, 4 hours 37° C., pre-sperm rich fraction, mean±s.e.m., 3 biological replicates, 10,000 cells
structure (smiles),measurement,setting,value
CC(C)C[C@@H](C=O)NC(=O)[C@H](CC(C)C)NC(=O)[C@H](CC(C)C)NC(=O)OCc1ccccc1 [MG132] (Cbz-Leu-Leu-Leu-aldehyde),Signature 1 (portion of spermatozoa with zinc signature 1),boar spermatozoa [1]; [3],30.8% ± 13.1%^B
same,Signature 2 (portion of spermatozoa with zinc signature 2),boar spermatozoa [1]; [3],32.9% ± 19.5%
same,Signature 3 (portion of spermatozoa with zinc signature 3),boar spermatozoa [1]; [3],31.0% ± 4.9%^B
same,Signature 4 (portion of spermatozoa with zinc signature 4),boar spermatozoa [1]; [3],5.4% ± 4.9%^AB
same,Retention of zinc signature 1 during IVC as compared to IVC+vehicle,"boar spermatozoa [1]; added to IVC conditions, pre-sperm rich fraction, P=0.0271 (signatures 1 & 2 combined P=0.0008)",significantly higher portion of spermatozoa retained signature 1
"c1ccc(CN(CCN(Cc2ccccn2)Cc2ccccn2)Cc2ccccn2)nc1 [TPEN, N,N,N′,N′-Tetrakis(2-pyridinylmethyl)-1,2-ethanediamine]","FZ3 fluorescence / zinc signature after Zn chelation, compared to vehicle",boar spermatozoa [2],removed a majority of FZ3 fluorescence to signature 3 and 4 states
same,Fluo-4 calcium probe intensity compared to vehicle,boar spermatozoa [2],did not reduce Fluo-4 calcium probe intensity
"[Cl-].[Cl-].[Zn+2] [ZnCl2, zinc chloride]",Zinc signature after IVC with exogenous zinc,boar spermatozoa [1]; 1 mM added to IVC medium,retained signature 1
